According to article PMC2673211, “Nitric oxide activates ATP-sensitive potassium channels in mammalian sensory neurons: action by direct S-nitrosylation” (Molecular Pain, 2009):

Molecular target: T1, KATP channels in large DRG neurons (Rattus norvegicus, UniProt P70673+Q09429)
T1 construct: native KATP channels in large DRG neurons; endogenous in cells; host or cells: acutely dissociated large-diameter neurons from rat L4/L5 dorsal root ganglia (sham-operated or spinal nerve ligated animals)
Test: Excised inside-out (cell-free) patch-clamp recording of KATP channel activity
Format: biochemical
Conditions: SS neurons; for direct effect on KATP channel in inside-out patches: n = 6
Excerpt: We harvested control (L4 and L5) or axotomized (L5) ganglia, from control (SS) or hyperalgesic rats (SNL) respectively, between the 17th and 28th postoperative days. We sacrificed animals by decapitation under deep isoflurane anesthesia, excised ganglia through a lumbar incision, and at the same time confirmed accuracy of initial surgery.
For patch-clamp recordings, we placed excised DRG into separate 35 mm Petri dishes containing cold, oxygenated, Hanks Balanced Salt Solution (Gibko, Invitrogen, Grand Islan, NY), and minced them with iris scissors. We dissociated ganglia enzymatically in a solution containing 0.25 ml 0.05% w:v liberase blendzyme 2 (Roche Diagnostics Corp., Indianapolis, IN) and 0.25 ml DMEM/F12 with glutaMAX (Dulbecco's modified Eagle's medium F12; Gibco, Invitrogen Corp., Carlsbad, CA) in an incubator at 37°C for 30 min. We then removed the supernatant after centrifugation and re-incubated cells at 37°C for another 30 min in 0.2 ml 0.0625% trypsin (Sigma, St. Louis, MO) and 0.0125% deoxyribonuclease 1 (150,000 U, Sigma, St. Louis, MO) in 0.25 ml DMEM. We then isolated cells by centrifugation (600 rpm for 5 min) after adding 0.25 ml trypsin inhibitor 0.1% w:v (Sigma St. Louis, MO), and re-suspended them in a culture medium consisting of 0.5 mM glutamine, 0.02 mg/ml gentamicin (Gibco, Invitrogen Corp., Carlsbad, CA), 100 ng/ml nerve growth factor 7S (Alomone Labs, Jerusalem, Israel), 2% (vol/vol) B-27 supplement (Gibco, Invitrogen Corp., Carlsbad, CA), and 98% (vol/vol) neural basal medium A (Gibco, Invitrogen Corp., Carlsbad, CA). Finally, we plated cells onto poly-l-lysine-coated 12-mm glass coverslips (Deutsche Spiegelglas; Carolina Biologic Supply, Burlington, NC), kept them in a humidified incubator at 37°C with 95% air and 5% CO2, and studied them within 3–8 h of dissociation.
We visualized plated neurons using an inverted Nikon Diaphot 300 microscope with Hoffman modulation optic system. We selected only large diameter neuronal somata (≥ 40 μm in diameter) because we have previously shown that only these develop KATP current alterations, as well as changes indicative of increased excitability after painful-like nerve injury by SNL [74]. Large neuronal somata, roughly correspond to large, myelinated Aβ fibers.
We recorded current passing through single channels in inside-out or cell-attached patch configurations. In cell-attached patches, both bath and pipette (extracellular) solutions were composed of the following: 140 mM KCl, 10 mM HEPES, 5.5 mM dextrose, and 1 mM EGTA. In inside-out patches, the bath (intracellular) solution contained 140 mM KCl, 1.2 mM MgCl2, 10 mM HEPES, 1.5 mM EGTA and 5.5 mM dextrose. The pipette (extracellular) solution was of the same composition as that used in cell-attached recordings. The pH of all solutions was adjusted to 7.4 with KOH. Osmolality was adjusted approximately to 300 mOsm/l by adding sucrose if necessary. We pulled patch micropipettes from borosilicate glass capillaries using a Flaming/Brown micropipette puller, model P-97 (Sutter, San Rafael, CA) and flame polished them with a microforge polisher (Narishige, Tokyo, Japan) prior to use. Their resistance ranged between 3 and 6 MΩ when filled with the internal solution, and placed into the recording solutions.
We recorded single channel currents at room temperature (20–25°C) using an Axon CNS Multiclamp 700B amplifier, digitized them using an analog-to-digital converter (Axon CNS DigiData 1440A; Axon Instruments, Foster, CA), and stored them into a PC. Sampling frequency of single-channel data was 5 KHz with a low-pass filter (1 KHz). We used pClamp version 10.2 software (Axon Instruments) for data acquisition and analysis. We applied a conventional 50% current amplitude threshold level criterion to determine open events. Channel open probability (Po) was determined from the ratios of the area under the peaks in the amplitude histograms fitted by a Gaussian distribution. […]

T1 sequence (Q09429 whole entry): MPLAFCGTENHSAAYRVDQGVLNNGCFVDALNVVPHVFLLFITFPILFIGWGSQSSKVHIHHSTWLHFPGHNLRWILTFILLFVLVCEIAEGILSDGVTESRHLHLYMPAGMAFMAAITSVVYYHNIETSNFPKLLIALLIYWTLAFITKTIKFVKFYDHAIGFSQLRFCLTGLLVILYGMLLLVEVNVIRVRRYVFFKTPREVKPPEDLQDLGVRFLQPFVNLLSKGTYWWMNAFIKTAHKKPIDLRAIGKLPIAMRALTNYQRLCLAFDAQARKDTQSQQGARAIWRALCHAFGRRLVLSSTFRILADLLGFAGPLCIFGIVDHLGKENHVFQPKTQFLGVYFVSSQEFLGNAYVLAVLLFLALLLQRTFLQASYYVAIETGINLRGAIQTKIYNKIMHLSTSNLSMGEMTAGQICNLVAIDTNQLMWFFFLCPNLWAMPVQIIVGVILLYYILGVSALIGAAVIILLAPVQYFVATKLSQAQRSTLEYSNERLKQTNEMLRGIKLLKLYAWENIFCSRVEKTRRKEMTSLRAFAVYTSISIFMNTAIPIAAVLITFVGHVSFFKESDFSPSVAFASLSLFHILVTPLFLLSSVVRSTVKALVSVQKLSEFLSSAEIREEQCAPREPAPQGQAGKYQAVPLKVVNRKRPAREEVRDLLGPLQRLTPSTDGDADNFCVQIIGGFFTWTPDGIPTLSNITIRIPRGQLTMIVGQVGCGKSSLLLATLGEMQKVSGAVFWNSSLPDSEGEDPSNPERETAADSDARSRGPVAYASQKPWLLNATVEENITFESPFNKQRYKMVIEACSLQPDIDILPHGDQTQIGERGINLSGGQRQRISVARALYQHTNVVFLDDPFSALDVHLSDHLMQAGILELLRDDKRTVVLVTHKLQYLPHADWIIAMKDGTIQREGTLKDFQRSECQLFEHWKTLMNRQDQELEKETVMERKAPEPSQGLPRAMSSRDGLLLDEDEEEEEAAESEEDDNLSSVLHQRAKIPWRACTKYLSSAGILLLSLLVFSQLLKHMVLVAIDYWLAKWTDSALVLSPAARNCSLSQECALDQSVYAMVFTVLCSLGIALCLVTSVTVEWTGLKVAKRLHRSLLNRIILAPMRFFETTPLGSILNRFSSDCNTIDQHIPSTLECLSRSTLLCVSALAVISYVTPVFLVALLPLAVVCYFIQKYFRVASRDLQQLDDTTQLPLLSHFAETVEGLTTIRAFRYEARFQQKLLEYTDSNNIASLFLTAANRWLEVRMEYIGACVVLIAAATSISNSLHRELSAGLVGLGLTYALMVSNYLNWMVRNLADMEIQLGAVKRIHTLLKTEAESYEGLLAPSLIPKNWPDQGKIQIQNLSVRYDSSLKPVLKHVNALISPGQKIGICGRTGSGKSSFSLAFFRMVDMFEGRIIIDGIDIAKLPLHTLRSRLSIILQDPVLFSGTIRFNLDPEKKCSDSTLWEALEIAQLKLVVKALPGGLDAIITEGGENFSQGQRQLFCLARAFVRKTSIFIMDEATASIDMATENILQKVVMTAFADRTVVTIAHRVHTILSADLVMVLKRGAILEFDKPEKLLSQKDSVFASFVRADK
T1 sequence (P70673 whole entry): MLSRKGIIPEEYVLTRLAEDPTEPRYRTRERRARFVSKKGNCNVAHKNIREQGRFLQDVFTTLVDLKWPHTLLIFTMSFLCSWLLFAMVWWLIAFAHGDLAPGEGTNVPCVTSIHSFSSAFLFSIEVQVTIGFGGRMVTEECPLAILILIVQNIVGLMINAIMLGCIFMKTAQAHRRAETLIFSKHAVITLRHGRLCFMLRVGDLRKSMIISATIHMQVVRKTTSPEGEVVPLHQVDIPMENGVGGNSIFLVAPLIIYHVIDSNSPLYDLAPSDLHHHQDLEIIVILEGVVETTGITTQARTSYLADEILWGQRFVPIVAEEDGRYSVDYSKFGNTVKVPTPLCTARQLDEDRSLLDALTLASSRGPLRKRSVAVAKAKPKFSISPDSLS

With S-nitroso-N-acetylpenicillamine [SNAP] the “direct effect on KATP channel in inside-out patches” value (SNAP 100 μM in the presence of 10 μM [ATP]i) was “did not produce any significant channel activation”, the “direct effect on KATP channel in inside-out patches” value (SNAP 100 μM in the presence of 1 mM [ATP]i) was “gradually activated” and the “baseline current amplitude and conductance of channels” value (patch exposure to 100 μM SNAP, n = 5) was “remained unchanged”.
